Measured values as given in publication PMC7468108 (Communications Biology, 2020).

Molecular target: T1, hIAPP (Homo sapiens, UniProt P10997)
T1 construct: hIAPP is a 37-amino acid neuroendocrine peptide hormone; purchased Peptide 2.0 (USA)
T1 sequence (P10997 34-70 limits assumed): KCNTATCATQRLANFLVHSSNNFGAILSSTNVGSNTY
Assay: ThT-binding assay, inhibition of hIAPP aggregation
Type: biochemical
Details: for Normalized ThT fluorescence: hIAPP (10 µM) : molecule 1:5, average of three data sets; for % amyloid of hIAPP: hIAPP 10 µM
Procedure: A similar inhibitory effect by the hybrid molecules was found toward hIAPP aggregation. […] Upon co-incubation of hIAPP with the hybrid molecules, a dose-response inhibition of hIAPP fibril formation was observed (Fig. 2d, e and Supplementary Fig. 3). […] Also, for IAPP, the marginally stronger inhibitory effect of WGalNAc was statistically significant (Supplementary Fig. 2b).
The resulting thin films were dissolved in PBS (100 mM, pH 7.4) and sonicated for 5 min to get a stock concentration of 50 µM, which immediately diluted to required concentration for an experiment. Stock solutions of ThT (4 mM in PBS) and hybrid molecules (10 mM in PBS) were prepared. All the stock solutions were diluted according to the requirement.
The experiment was performed according to the previous report. […] Kinetics fluorescence data were collected at 37 °C in triplicate using Infinite M200 microplate reader (Tecan, Switzerland), with measurements acquired at 15 min intervals. Excitation and emission wavelengths were set at 440 nm and 485 nm, respectively.

NC(Cc1c[nH]c2ccccc12)C(=O)NC(Cc1c[nH]c2ccccc12)C(=O)O (centres unmarked) [WW]
Normalized ThT fluorescence (Time 0 h): 29.978 | Normalized ThT fluorescence (Time 0.25 h): -2.428 | Normalized ThT fluorescence (Time 0.5 h): 312.254 | Normalized ThT fluorescence (Time 0.75 h): 629.363 | Normalized ThT fluorescence (Time 1 h): 980.330 | Normalized ThT fluorescence (Time 1.25 h): 1609.153 | Normalized ThT fluorescence (Time 1.5 h): 2335.279 | Normalized ThT fluorescence (Time 1.75 h): 2857.634 | Normalized ThT fluorescence (Time 2 h): 3166.885 | Normalized ThT fluorescence (Time 2.25 h): 3521.809 | Normalized ThT fluorescence (Time 2.5 h): 3762.743 | Normalized ThT fluorescence (Time 2.75 h): 4063.191 | Normalized ThT fluorescence (Time 3 h): 4256.338 | Normalized ThT fluorescence (Time 3.25 h): 4441.516 | Normalized ThT fluorescence (Time 3.5 h): 4588.861 | Normalized ThT fluorescence (Time 3.75 h): 4641.496 | Normalized ThT fluorescence (Time 4 h): 4783.902 | Normalized ThT fluorescence (Time 4.25 h): 5155.140 | Normalized ThT fluorescence (Time 4.5 h): 5083.691 | Normalized ThT fluorescence (Time 4.75 h): 5147.945 | Normalized ThT fluorescence (Time 5 h): 5383.622 | Normalized ThT fluorescence (Time 5.25 h): 5413.206 | Normalized ThT fluorescence (Time 5.5 h): 5636.242 | Normalized ThT fluorescence (Time 5.75 h): 5718.561 | Normalized ThT fluorescence (Time 6 h): 5762.151 | Normalized ThT fluorescence (Time 6.25 h): 5998.572 | Normalized ThT fluorescence (Time 6.5 h): 6267.216 | Normalized ThT fluorescence (Time 6.75 h): 6187.949 | Normalized ThT fluorescence (Time 7 h): 6251.809 | Normalized ThT fluorescence (Time 7.25 h): 6421.160 | Normalized ThT fluorescence (Time 7.5 h): 6518.393 | Normalized ThT fluorescence (Time 7.75 h): 6603.373 | Normalized ThT fluorescence (Time 8 h): 6737.364 | Normalized ThT fluorescence (Time 8.25 h): 6750.786 | Normalized ThT fluorescence (Time 8.5 h): 6792.841 | Normalized ThT fluorescence (Time 8.75 h): 6865.131 | Normalized ThT fluorescence (Time 9 h): 6824.556 | Normalized ThT fluorescence (Time 9.25 h): 6905.238 | Normalized ThT fluorescence (Time 9.5 h): 6910.878 | Normalized ThT fluorescence (Time 9.75 h): 6951.940 | Normalized ThT fluorescence (Time 10 h): 6938.219 | Normalized ThT fluorescence (Time 10.25 h): 6978.295 | Normalized ThT fluorescence (Time 10.5 h): 7036.631 | Normalized ThT fluorescence (Time 10.75 h): 7131.130 | Normalized ThT fluorescence (Time 11 h): 7205.208 | Normalized ThT fluorescence (Time 11.25 h): 7201.975 | Normalized ThT fluorescence (Time 11.5 h): 7247.388 | Normalized ThT fluorescence (Time 11.75 h): 7228.342 | Normalized ThT fluorescence (Time 12 h): 7216.738 | Normalized ThT fluorescence (Time 12.25 h): 7265.266 | Normalized ThT fluorescence (Time 12.5 h): 7198.053 | Normalized ThT fluorescence (Time 12.75 h): 7266.511 | Normalized ThT fluorescence (Time 13 h): 7230.088 | Normalized ThT fluorescence (Time 13.25 h): 7204.082 | Normalized ThT fluorescence (Time 13.5 h): 7254.393 | Normalized ThT fluorescence (Time 13.75 h): 7295.955 | Normalized ThT fluorescence (Time 14 h): 7250.976 | Normalized ThT fluorescence (Time 14.25 h): 7276.851 | Normalized ThT fluorescence (Time 14.5 h): 7406.119 | Normalized ThT fluorescence (Time 14.75 h): 7447.878 | Normalized ThT fluorescence (Time 15 h): 7365.784 | % amyloid of hIAPP (molar ratio hIAPP:tested molecule 1:1): 105.600% | % amyloid of hIAPP (molar ratio hIAPP:tested molecule 1:5): 115.433% | % amyloid of hIAPP (molar ratio hIAPP:tested molecule 5:1): 99.082% | inhibition of hIAPP fibril formation (ThT), in words (molar ratios 5:1, 1:1, 1:5): No inhibitory effect
